Measured values as given in PMC9970268 (Cancer Research Communications, 2022).

Tests used:
[1] = biological target: T1, Cdc42 (Homo sapiens, UniProt P60953); experiment: Nucleotide association assay, catalyzed by Dbs; type: biochemical; set-up: purchased Cytoskeleton, Inc; settings: 2 or 10 μmol/L, N-MAR-GTP
Procedure: (§1) The nucleotide loading on purified Rho GTPases was monitored using a fluorophore-based Rho GEF Exchange Assay Kit as per manufacturer's instructions (Cytoskeleton, Inc.). Drugs were diluted in exchange buffer and incubated with Rac1, Cdc42, or RhoA. The uptake of fluorescent nucleotide analog N-methylanthraniloyl-GTP (N-MAR-GTP) was measured as an increase in fluorescence due to binding to the nucleotide binding pocket of a GTPase. The fluorimeter was set at 20°C on kinetic mode and N-MAR GTP was detected at […]. After the initial five readings (T0), GEFs (Dbs or Vav2) or Ethylenediaminetetraacetic acid (EDTA) was added to stimulate exchange and readings were obtained every 30 seconds for at least 60 cycles.

[2] = test system: HMEC cells; experiment: Cell viability (MTT) assay; type: cell-based, human; settings: 120 hours, 0 to 1,000 nmol/L
Procedure: (§2) Using CellTiter 96 Non-Radioactive Cell Proliferation Assay (Promega, Corp.) according to manufactures’ instructions, formazan was used as an indicator of viable cells at an absorbance 570 nm in a Tecan Microplate Reader M100 (Tecan). Data were calculated as fold change from vehicle and transformed to logarithm base 10. 0 concentration was replaced with 1 nmol/L to fit using the 4-parameter logic nonlinear regression model in GraphPad Prism software. (n = 3 biologic replicates: with three technical replicates each).

[3] = test system: GFP-HER2-BM mammary fatpad tumors; experiment: Orthotopic spontaneous metastasis mouse model; type: in vivo; settings: for weight and liver toxicity (aspartate transaminase and alanine transaminase from plasma): 5× a week at 5 mg/kg for 53 days
Procedure: All animal studies were conducted under approved protocol A8180118 Institutional Animal Care and Use Committee, in accordance with the NIH Guideline for the Care and Use of Laboratory Animals. Female SCID mice, 3–4 weeks old (Charles River Laboratories, Inc.), were maintained under pathogen-free conditions in High Efficiency Particulate Air (HEPA)-filtered cages.
GFP-HER2-BM (∼7 × 10^5) cells in Matrigel (BD Biosciences) were injected at the fourth right mammary fat pad under isoflurane inhalation (1%–3% in oxygen using an inhalation chamber at 2 L/minute) to produce orthotopic primary tumors. After tumor establishment (1-week after inoculation), animals were randomly divided into treatment groups (n = 5).
[…]. Treatments continued until sacrifice at day 53.
Mammary tumor growth was quantified by integrated density of GFP fluorescence. After tumor establishment, mice were imaged before starting treatment, and once a week thereafter for 53 days, using the iBoxScientia (Analytik-Jena GmbH). Tumor fluorescence intensities were analyzed using ImageJ software (NIH, Bethesda, MD). Relative tumor growth was calculated as the integrated density of fluorescence of each tumor on each day of imaging relative to the integrated density of fluorescence of the same tumor on day 1 of treatment. After sacrifice at day 60, lungs, kidneys, livers, and spleens were excised and immediately stored in liquid N2. To quntify metastasis, stored organs were thawed and analyzed, as whole organs on both sides, using an Olympus MV10 fluorescence macro zoom system microscope and images acquired with an Olympus DP71 digital camera. The fluorescent lesions (green component of RGB images) were quantified for integrated density of fluorescent pixels using Image J software.

[4] = biological target: T1, Cdc42; experiment: Nucleotide association assay, induced by EDTA; type: biochemical; set-up: purchased Cytoskeleton, Inc; settings: for EDTA-induced nucleotide loading of N-MAR-GTP on Cdc42: 2 and 10 μmol/L
Procedure: as §1

[5] = test system: MDA-MB-231 cells; experiment: Wound healing assay; type: cell-based, human; settings: 250 nmol/L; 12 and 24 hours
Procedure: MDA-MB-231 cells were plated on 12-well plates at equal cell density until confluent. Then the media was changed to 1% FBS, and a single scratch was made in the center of the monolayer culture with a pipet tip. Compounds were added immediately at 250 or 500 nmol/L and images were digitally acquired from a Keyence microscope (10×) at 0, 12, and 24 hours. The scratch area was quantified in ImageJ using the Macro Wound Healing Tool (http://dev.mri.cnrs.fr/projects/imagej-macros/wiki/Wound_Healing_Tool; n = 3 biologic replicates: with three technical replicates each).

[6] = test system: A549 lung cancer cells; experiment: EGF-induced ruffle formation; type: cell-based, human; settings: 24 hours, then EGF 200 ng/mL; for loss in ruffles: 500 nmol/L; for decrease in ruffles: 1,000 nmol/L
Procedure: Cells were fixed with 4% formaldehyde and F-actin stained with rhodamine phalloidin. Slides were visualized by fluorescence microscopy and five random fields were scored for the number of ruffles. Ruffle area was measured by thresholding for single intensity using ImageJ/Fiji software, as in ref. [29].

[7] = biological target: T2, Cdc42(G15A) interaction with Ect2 (Homo sapiens, UniProt P60953, G15A); experiment: Cdc42 (G15A) pulldown assay, Ect2; type: binding; settings: 250 nmol/L, 1 hour preincubation, MDA-MB-231 cell lysates
T2 construct: purchased Cell Biolabs; host or cells: GEF from MDA-MB-231 lysate
T2 sequence (P60953 whole entry G15A): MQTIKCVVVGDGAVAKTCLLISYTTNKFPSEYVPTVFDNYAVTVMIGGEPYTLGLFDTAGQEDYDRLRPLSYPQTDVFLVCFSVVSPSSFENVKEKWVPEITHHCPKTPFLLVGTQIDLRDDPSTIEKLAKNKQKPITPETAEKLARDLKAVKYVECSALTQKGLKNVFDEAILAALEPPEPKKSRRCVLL
Procedure: MDA-MB-231 cells were lysed in 1% Triton X-100, 20 mmol/L HEPES, pH 7.4, 150 mmol/L NaCl, 5 mmol/L MgCl2, and protease inhibitors, and processed as described previously ([20]). Equal amounts of protein from cleared lysates were incubated for 1 hour at 4°C with glutathione-agarose beads conjugated to GST-Rac1 and GST-Cdc42(G15A) nucleotide-free mutant (Cell Biolabs) that were preincubated (for 1 hour) with vehicle or Rac/Cdc42 inhibitors, as indicated. The beads were washed, and pulldowns were immunoblotted for Vav2 or Ect2.

[8] = test system: MCF10A cells; experiment: Cell viability (MTT) assay; type: cell-based, human; settings: for inhibition of cell viability: 250 nmol/L, 120 hr; for GI50: Homo sapiens, MCF-10A, 120 hours, 0 to 1,000 nmol/L
Procedure: as §2
(§3) All half maximal growth inhibitory concentration (GI50) values were determined by using the 4-parameter logistic curve model in GraphPad Prism 9 software. Statistical analyses were done also using GraphPad Prism 9 software, and differences were considered statistically significant at P ≤ 0.05 using ordinary one-way ANOVA or unpaired Student t test with Dunnet multiple comparison tests.

[9] = test system: MDA-MB-231 cells; experiment: Cell viability (MTT) assay; type: cell-based, human; settings: for inhibition of cell viability: 250 nmol/L, 120 hr; for GI50: 120 hours, 0 to 1,000 nmol/L
Procedure: as §2, §3

[10] = test system: GFP-HER2-BM cells; experiment: Cell viability (MTT) assay; type: cell-based, human; settings: for GI50: 0 to 1,000 nmol/L
Procedure: as §2, §3

[11] = 5 mg/kg BW, intraperitoneal, 53 days

T1 sequence (P60953 whole entry): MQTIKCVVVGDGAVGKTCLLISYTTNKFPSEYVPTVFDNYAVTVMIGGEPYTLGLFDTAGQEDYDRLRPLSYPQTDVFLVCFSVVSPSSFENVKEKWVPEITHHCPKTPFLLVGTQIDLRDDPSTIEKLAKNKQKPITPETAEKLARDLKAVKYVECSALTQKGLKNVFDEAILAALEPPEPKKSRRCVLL

Structure (SMILES)	inhibition of GTP loading on Cdc42 catalyzed by Dbs [1]	effect on viability of HMECs [2]	inhibition in tumor growth compared with vehicle [3, 11]	weight and liver toxicity (aspartate transaminase and alanine transaminase from plasma) [3]	EDTA-induced nucleotide loading of N-MAR-GTP on Cdc42 [4]	wound closure [5]	loss in ruffles [6]	decrease in ruffles [6]	Cdc42(G15A) interaction with Ect2 [7]	inhibition of cell viability [8]	GI50 [8]	inhibition of cell viability [9]	inhibition of cell viability ([10]; 250 nmol/L, 120 hr)	inhibition of cell viability ([10]; 500 nmol/L, 72 hours)	further results
CCn1c2ccccc2c2cc(-n3nncc3-c3cccc(OC)c3)ccc21 [MBQ-168]	10%–20%	did not affect the viability of HMECs	approximately 90%	did not significantly change weight or liver toxicity	reduced nucleotide loading at both 2 and 10 μmol/L	wound area was maintained at 12 and 24 hours	67%	79%	no effect	30%	304 nM	50%	approximately 85%	approximately 75%	inhibition at 10 µM ([4]; 10 μmol/L, N-MAR-GTP, read-out: inhibition of EDTA-induced GTP exchange on Cdc42): 100%; GI50 ([9]; Homo sapiens, MDA-MB-231): 199 nM; GI50 ([10]; Homo sapiens, 120 hours): 171 nM
CCn1c2ccccc2c2cc(-n3nncc3-c3ccccc3)ccc21 [MBQ-167]	did not affect	did not affect the viability of HMECs	approximately 90%	did not significantly change weight or liver toxicity	inhibited the nucleotide loading of N-MAR-GTP at 10 μmol/L	wound area was maintained at 12 and 24 hours	54%	63%	no effect	30%	296 nM	50%	approximately 85%	approximately 75%	inhibition of lung, liver, and kidney metastases compared with vehicle [3, 11]: approximately 90%; GI50 [9]: ~160 nM; GI50 ([9]; Homo sapiens, MDA-MB-231, 120 h): 162 nM; GI50 ([10]; 120 hours): ~160 nM; GI50 ([10]; Homo sapiens, 120 h): 163 nM
